Reference: patent US20240327415A1, “Multicomponent Complexes, Including Salts, Crystalline Forms, and Hydrates and Solvates of ENT1 Inhibitors” (iTeos Belgium SA, priority 2023, published 2024)
One block for each molecule: values may come before it.

What was measured:
Format in all cases: physicochemical
[1] = hydration mapping studies (slurries at different water activities, Example 17); settings: aw 0.1, dried 40° C. reduced pressure 24 hr
Experimental: Example 17—Hydration Mapping Studies-Crystalline Form 2 Compound 1 di(hydrogen sulfate) trihydrate, Crystalline Form 3 Compound 1 di(hydrogen sulfate), and Blend: The effects of different water activities on crystalline Form 2 Compound 1 di(hydrogen sulfate) trihydrate, crystalline Form 3 Compound 1 di(hydrogen sulfate) and a blend of the two were investigated. The “blend” was prepared by mixing crystalline Form 2 Compound 1 di(hydrogen sulfate) trihydrate and crystalline Form 3 Compound 1 di(hydrogen sulfate) in a 1:1 ratio. To the vials containing the required solid material, the appropriate solvent system was added to form slurries. The slurry samples were stirred at the required temperatures during and after the solvent addition. Where dissolution was observed post-solvent addition, additional solid was added to re-saturate the sample. After stirring at the required temperature for 48 hours, the residual solids left in the vials were analyzed by XRPD to assess the solid forms. The analyzed samples were then dried on the XRPD plate under reduced pressure at 40° C. for 24 hr. The dried samples were analyzed by XRPD.

[2] = seven-day solid stability studies (ambient; 40° C./75% RH; 80° C.), XRPD and HPLC; set-up: key: Crystalline Form 3 di(hydrogen sulfate); Crystalline Form 9 di(hydrogen sulfate); Melt/Amorphous; settings: 7 days, sealed
Experimental: (§1) In the experiment, one set of vials was exposed to ambient light, temperature and humidity conditions. Another was exposed openly to 40° C. and 75% RH conditions and a third was sealed and exposed to 80° C. conditions. After 7 days, XRPD and HPLC measurements were collected.
(§2) Example 12-Stability Studies of Amorphous Compound 1 (free base) and Crystalline Form 1 Compound 1 (free base): Seven-day stability studies were carried out comparing amorphous Compound 1 (free base) and crystalline Form 1 Compound 1 (free base) at 40° C./75% RH, under ambient conditions and at 80° C. After storage at 40° C./75% RH and 80° C., the amorphous material formed glassy solids which were pale yellow (40° C./75% RH) or orange (80° C.). It is likely that the material melted and re-solidified at 80° C. and deliquesced at 40° C./75% RH. […] (decrease in purity of ca. 11% area).
(§3) Example 15-Stabilities Studies-Crystalline Form 3 Compound 1 di(hydrogen sulfate) and Crystalline Form 4 Compound 1 mono(hydrogen sulfate): Seven-day stability studies were carried out on the prepared crystalline Form 3 Compound 1 di(hydrogen sulfate) and crystalline Form 4 Compound 1 mono(hydrogen sulfate) using the following conditions: (1) Ambient light, temperature and humidity conditions (open vial); (2) 40° C./75% RH (open vial); and (3) 80° C. (closed vial). […]

[3] = as above; set-up: key: Crystalline Form 2 di(hydrogen sulfate) trihydrate; Crystalline Form 3 di(hydrogen sulfate); M4: Crystalline Form 4 mono(hydrogen sulfate); Crystalline Form 6 di(hydrogen sulfate); 3 + 9: Mixture of Crystalline Form 3 di(hydrogen sulfate) and Crystalline Form 9 di(hydrogen sulfate); settings: 7 days, 80° C. (closed vial)
Experimental: as §1, §2, §3

[4] = as above
Experimental: as §1, §2
Example 15-Stabilities Studies-Crystalline Form 3 Compound 1 di(hydrogen sulfate) and Crystalline Form 4 Compound 1 mono(hydrogen sulfate): Seven-day stability studies were carried out on the prepared crystalline Form 3 Compound 1 di(hydrogen sulfate) and crystalline Form 4 Compound 1 mono(hydrogen sulfate) using the following conditions: (1) Ambient light, temperature and humidity conditions (open vial); (2) 40° C./75% RH (open vial); and (3) 80° C. (closed vial). After 7 days of storage under the specified conditions, XRPD and HPLC analyses were carried out on the residual solid materials, and the results are summarized in Table 51.
Example 18-Seven Day Stability Study on Crystalline Form 2 Compound 1 di(hydrogen sulfate) trihydrate: A 7-day stability study was conducted on crystalline Form 2 Compound 1 di(hydrogen sulfate) trihydrate using the following conditions: (1) ambient light, temperature, and humidity conditions (open vial); (2) 40° C., 75% RH (open vial); and (3) 80° C. (closed vial). After 7 days of storage under the specified, XRPD and HPLC analyses were carried out on the residual solid materials.

[5] = salt screen, XRPD of damp, dried and 40° C./75% RH stored samples (Salt Preparation Methods 1 and 2); set-up: key: A = amorphous; Evap. = isolated via evaporation; settings: L-Malic acid, 1 equiv.
How it was run: (§4)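 XRPD was recorded three times: on damp solids isolated at 5 °C, after ~17–91 h vacuum drying at ~40 °C, and after 24–48 h storage at 40 °C/75% RH. Solids came from stirring free base with 1.0 or 2.0 equiv. counterion at 40 °C, 40–5 °C temperature cycling, and anti-solvent addition.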

[6] = as above; set-up: key: A = amorphous; * = predominantly; 1 = Form 1 Compound 1 L-malate; 2 = Form 2 Compound 1 L-malate; settings: L-Malic acid, 1 equiv.; MEK; AS Heptane
Experimental: Salt Preparation Method 1: Approximately 25 mg of Compound 1 (free base) was weighed out into 1.5 mL screw-cap vials and a stirrer bar was added. For solid counterions, the appropriate amount of acid (1.0 or 2.0 equiv.) was weighed into separate 1.5 mL screw-cap vials. 100 μL of the appropriate solvent system was added to both the Compound 1 and the solid counterions. Stock solutions of liquid counterions were prepared, such that 100 μL contained 1.0 or 2.0 equiv. of acid. See counterion and solvent lists in Table 60 and Table 61 respectively.
The samples were stirred at 40° C. for 5-10 min and then the acid solutions were added to Compound 1, rinsing out the transfer vial with a further 50 μL of solvent. […] Experiments were temperature cycled between 40° C. and 5° C. […]
Temperature cycling was then continued for ca. 16-69 h, followed by further ASA and temperature cycling if required. Material was isolated at 5° C. and analyzed damp by XRPD. All isolated material was dried under vacuum at ca. 40° C. for ca. 17-91 h then re-analyzed by XRPD. The XRPD plate was stored at 40° C./75% RH for 24-48 h and then samples re-analyzed. […] Any residual solids were analyzed by XRPD. […]
The experiments were stirred at 40° C. for ca. 1 h, and then temperature cycled between 40° C. and 5° C. with 0.1° C./min ramp and 1 h hold between each step. […] The damp and dried solids were subsampled and analyzed by XRPD. […]

[7] = as above; settings: L-Malic acid, 1 equiv., AS Heptane
How it was run: as §4

Structure (SMILES): COc1cc(C(=O)O[C@@H]2CCCOc3cc(cc(OC)c3OC)C(=O)NCCCN3CCCN(CC2)CC3)cc(OC)c1OC.O=S(=O)(O)O.O=S(=O)(O)O [Form 3 di(hydrogen sulfate)]
XRPD, hydration studies - dried samples ([1]; 20° C., 2-Propanol:Water): 3, PC | XRPD, hydration studies - dried samples ([1]; 20° C., Acetonitrile:Water): 3, PC | XRPD, hydration studies - dried samples ([1]; 50° C., 2-Propanol:Water): 1, PC | XRPD, hydration studies - dried samples ([1]; 50° C., Acetonitrile:Water): 3, PC | XRPD [2]: 9 | XRPD [3]: 3 + 9 | HPLC ([4]; 7 days, 40° C./75% RH (open vial)): 99.82 % area | HPLC ([4]; 7 days, 40° C./75% RH, open vial): 99.82 % area | HPLC ([4]; 7 days, 80° C. (closed vial)): 99.80 % area | HPLC ([4]; 7 days, 80° C., sealed): 99.80 % area | HPLC ([4]; 7 days, Ambient (open vial)): 99.84 % area | HPLC ([4]; 7 days, Ambient, open vial): 99.84 % area | HPLC ([4]; Input sample): 99.83 % area

XRPD Analysis 40° C. 75% RH ([5]; Acetonitrile, AS tBME): A | XRPD Analysis Damp ([5]; Acetonitrile, AS tBME): A | XRPD Analysis Dry ([5]; Acetonitrile, AS tBME): A | XRPD Analysis 40° C. 75% RH ([5]; Ethanol, AS Heptane): A | XRPD Analysis 40° C. 75% RH ([5]; Ethyl acetate, AS Heptane): A | XRPD Analysis Damp ([5]; Ethyl acetate, AS Heptane): A | XRPD Analysis Dry ([5]; Ethyl acetate, AS Heptane): A | XRPD Analysis 40° C. 75% RH ([5]; IPA:H2O (75:25% v/v), AS tBME): A | XRPD Analysis Damp ([5]; IPA:H2O (75:25% v/v), AS tBME): A | XRPD Analysis Dry ([5]; IPA:H2O (75:25% v/v), AS tBME): A | XRPD Analysis 40° C. 75% RH ([5]; THE, AS Heptane): A | XRPD Analysis Damp ([5]; THE, AS Heptane): A | XRPD Analysis Dry ([5]; THE, AS Heptane): A | XRPD Analysis 40° C. 75% RH [6]: 1 | XRPD Analysis Damp ([7]; Ethanol): * A | XRPD Analysis Dry ([7]; Ethanol): * A | XRPD Analysis Damp ([7]; MEK): 1 + 2 | XRPD Analysis Dry ([7]; MEK): 1 + 2
Structure (SMILES): O=C(O)CC(O)C(=O)O [L-Malic acid, 1 equiv.]
